This passage reports EC50 results from patent publication US20110136801A1, “Novel Compounds” (Dainippon Sumitomo Pharma Co. Ltd., priority 2009, published 2011).

Structures are written as SMILES.

This assay has as its target T1, human TLR7 (Homo sapiens, UniProt Q9NYK1).
T1 construct: expressed in transfected cells; host or cells: HEK293 cell line stably expressing the pNiFty2-SEAP reporter plasmid; TLR7 in pUNO vector, blasticidin selection
T1 sequence (Q9NYK1 27-1049): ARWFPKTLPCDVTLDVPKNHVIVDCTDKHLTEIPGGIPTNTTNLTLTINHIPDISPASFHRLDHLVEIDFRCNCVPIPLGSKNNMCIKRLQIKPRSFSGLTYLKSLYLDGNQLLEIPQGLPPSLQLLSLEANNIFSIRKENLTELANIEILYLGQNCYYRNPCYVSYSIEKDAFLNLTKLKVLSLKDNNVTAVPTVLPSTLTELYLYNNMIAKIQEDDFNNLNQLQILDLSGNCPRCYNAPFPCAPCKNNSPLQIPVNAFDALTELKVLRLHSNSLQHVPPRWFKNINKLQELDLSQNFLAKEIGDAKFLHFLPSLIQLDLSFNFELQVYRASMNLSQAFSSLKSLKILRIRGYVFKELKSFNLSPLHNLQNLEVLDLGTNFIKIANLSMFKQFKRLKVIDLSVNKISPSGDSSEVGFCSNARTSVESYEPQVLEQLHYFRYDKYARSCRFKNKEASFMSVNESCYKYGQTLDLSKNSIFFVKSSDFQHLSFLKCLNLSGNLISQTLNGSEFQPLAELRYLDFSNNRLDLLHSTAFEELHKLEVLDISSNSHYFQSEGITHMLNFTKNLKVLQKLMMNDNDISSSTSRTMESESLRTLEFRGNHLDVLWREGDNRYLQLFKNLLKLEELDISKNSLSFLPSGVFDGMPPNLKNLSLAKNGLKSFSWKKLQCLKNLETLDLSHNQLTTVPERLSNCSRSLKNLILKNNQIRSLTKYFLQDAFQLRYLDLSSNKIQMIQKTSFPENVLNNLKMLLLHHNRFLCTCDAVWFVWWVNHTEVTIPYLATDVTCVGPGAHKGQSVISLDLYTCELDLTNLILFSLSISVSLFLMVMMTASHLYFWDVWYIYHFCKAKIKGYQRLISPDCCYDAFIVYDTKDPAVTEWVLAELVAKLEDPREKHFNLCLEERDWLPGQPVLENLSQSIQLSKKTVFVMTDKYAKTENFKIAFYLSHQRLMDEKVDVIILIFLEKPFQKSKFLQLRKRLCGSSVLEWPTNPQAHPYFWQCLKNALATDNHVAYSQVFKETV
The assay can be described thus: Human TLR7 Assay (SEAP reporter in HEK293 cells).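 Also: Read-out is secreted alkaline phosphatase made under an NFkB/ELAM-1 composite promoter, reporting TLR7-triggered NFkB activation.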 Type of assay: cell-based. The conditions noted are these: HEK293 cell line expressing human TLR7 and pNiFty2-SEAP reporter, overnight incubation at 37° C., 0.1% DMSO; read-out: hTLR7 EC50.
As usually defined, the EC50 is the concentration needed to bring the measured effect to its halfway point. `COCCc1nc2c(N)nc3ccccc3c2n1CCCCN(CCN(C)C)Cc1cccc(OCC(=O)OC(C)C)c1` [Example 132, Isopropyl 2-{3-[({4-[4-amino-2-(2-methoxyethyl)-1H-imidazo[4,5-c]quinolin-1-yl]butyl}{2-[dimethylamino]ethyl}amino)methyl]phenoxy}acetate]: the EC50 worked out at 56.4 nM.

Take `COCCc1nc2c(N)nc3ccccc3c2n1CCCCN(CCCN1CCOCC1)Cc1cccc(OCC(=O)OC(C)C)c1` [Example 133, Isopropyl 2-{3-[({4-[4-amino-2-(2-methoxyethyl)-1H-imidazo[4,5-c]quinolin-1-yl]butyl}{3-morpholinopropyl}amino)methyl]phenoxy}acetate]: the EC50 was found to be 114 nM.

On to `CCOC(=O)C(C)(C)Oc1cccc(CN(CCCCn2c(CCOC)nc3c(N)nc4ccccc4c32)CCN(C)C)c1` [Example 134, Ethyl 2-{3-[({4-[4-amino-2-(2-methoxyethyl)-1H-imidazo[4,5-c]quinolin-1-yl]butyl}{2-(dimethylamino)ethyl}amino)methyl]phenoxy}-2-methylpropanoate], for which the EC50 was found to be 20.9 nM.

Regarding `COCCc1nc2c(N)nc3ccccc3c2n1CCCCN(CCN(C)C)Cc1cccc(OC(C)(C)C(=O)OC)c1` [Example 135, Methyl 2-{3-[({4-[4-amino-2-(2-methoxyethyl)-1H-imidazo[4,5-c]quinolin-1-yl]butyl}{2-(dimethylamino)ethyl}amino)methyl]phenoxy}-2-methylpropanoate], the EC50 came to 16.6 nM.

As for `CCOC(=O)C(C)(C)Oc1cccc(CN(CCCCn2c(CCOC)nc3c(N)nc4ccccc4c32)CCCN2CCOCC2)c1` [Example 136, Ethyl 2-{3-[({4-[4-amino-2-(2-methoxyethyl)-1H-imidazo[4,5-c]quinolin-1-yl]butyl}{3-morpholinopropyl}amino)methyl]phenoxy}-2-methylpropanoate], the EC50 is 111 nM.

`COCCc1nc2c(N)nc3ccccc3c2n1CCCCN(CCCN1CCOCC1)Cc1cccc(OC(C)(C)C(=O)OC)c1` [Example 137, Methyl 2-{3-[({4-[4-amino-2-(2-methoxyethyl)-1H-imidazo[4,5-c]quinolin-1-yl]butyl}{3-morpholinopropyl}amino)methyl]phenoxy}-2-methylpropanoate]: the EC50 is 87.7 nM.

For `COCCc1nc2c(N)nc3ccccc3c2n1CCCCN(Cc1ccc(F)c(OCC(=O)OC(C)C)c1)C(=O)NCCN1CCCCC1` [Example 139, Isopropyl 2-{5-[(1-{4-[4-amino-2-(2-methoxyethyl)-1H-imidazo[4,5-c]quinolin-1-yl]butyl}-3-{2-(piperidin-1-yl)ethyl}ureido)methyl]-2-fluorophenoxy}acetate], the EC50 is 57 nM.

As for `CCOC(=O)COc1cc(CN(CCCCn2c(CCOC)nc3c(N)nc4ccccc4c32)C(=O)NCCN2CCCCC2)ccc1F` [Example 140, Ethyl 2-{5-[(1-{4-[4-amino-2-(2-methoxyethyl)-1H-imidazo[4,5-c]quinolin-1-yl]butyl}-3-{2-(piperidin-1-yl)ethyl}ureido)methyl]-2-fluorophenoxy}acetate], the EC50 is 79.1 nM.

Turning to `COCCc1nc2c(N)nc3ccccc3c2n1CCCCNC(=O)N(CCN1CCCCC1)Cc1ccc(F)c(OCC(=O)OC(C)C)c1` [Example 142, Isopropyl 2-{5-[(3-{4-[4-amino-2-(2-methoxyethyl)-1H-imidazo[4,5-c]quinolin-1-yl]butyl}-1-{2-(piperidin-1-yl)ethyl}ureido)methyl]-2-fluorophenoxy}acetate], the EC50 was 57.5 nM.

Turning to `CCOC(=O)COc1cc(CN(CCN2CCCCC2)C(=O)NCCCCn2c(CCOC)nc3c(N)nc4ccccc4c32)ccc1F` [Example 143, Ethyl 2-{5-[(3-{4-[4-amino-2-(2-methoxyethyl)-1H-imidazo[4,5-c]quinolin-1-yl]butyl}-1-{2-(piperidin-1-yl)ethyl}ureido)methyl]-2-fluorophenoxy}acetate], the EC50 was found to be 49.4 nM.

Regarding `COCCc1nc2c(N)nc3ccccc3c2n1CCCCNC(=O)N(CCN1CCCCC1)Cc1ccc(F)c(OCC(=O)OC)c1` [Example 144, Methyl 2-{5-[(3-{4-[4-amino-2-(2-methoxyethyl)-1H-imidazo[4,5-c]quinolin-1-yl]butyl}-1-{2-(piperidin-1-yl)ethyl}ureido)methyl]-2-fluorophenoxy}acetate], the EC50 stood at 79.2 nM.

With `CCN(CC)CC(=O)N(CCCn1c(CCOC)nc2c(N)nc3ccccc3c21)Cc1cccc(OCC(=O)OC(C)C)c1C` [Example 147, Isopropyl 2-{3-[(N-{3-[4-amino-2-(2-methoxyethyl)-1H-imidazo[4,5-c]quinolin-1-yl]propyl}-2-{diethylamino}acetamido)methyl]-2-methylphenoxy}acetate], the EC50 worked out at 183 nM.

On to `CCOC(=O)C(C)(C)Oc1cccc(CN(CCCn2c(CCOC)nc3c(N)nc4ccccc4c32)C(=O)CN(C)C)c1` [Example 148, Ethyl 2-{3-[(N-{3-[4-amino-2-(2-methoxyethyl)-1H-imidazo[4,5-c]quinolin-1-yl]propyl}-2-{dimethylamino}acetamido)methyl]phenoxy}-2-methylpropanoate], for which the EC50 was determined as 115 nM.

Take `COCCc1nc2c(N)nc3ccccc3c2n1CCCN(Cc1cccc(OC(C)(C)C(=O)OC)c1)C(=O)CN(C)C` [Example 149, Methyl 2-{3-[(N-{3-[4-amino-2-(2-methoxyethyl)-1H-imidazo[4,5-c]quinolin-1-yl]propyl}-2-{dimethylamino}acetamido)methyl]phenoxy}-2-methylpropanoate]: the EC50 was 181 nM.

For the molecule `CCOC(=O)C(C)(C)Oc1cccc(CN(CCCn2c(CCOC)nc3c(N)nc4ccccc4c32)C(=O)CN(C)CC)c1` [Example 150, Ethyl 2-{3-[(N-{3-[4-amino-2-(2-methoxyethyl)-1H-imidazo[4,5-c]quinolin-1-yl]propyl}-2-{ethyl(methyl)amino}acetamido)methyl]phenoxy}-2-methylpropanoate], the EC50 came out at 84.6 nM.

Turning to `CCN(C)CC(=O)N(CCCn1c(CCOC)nc2c(N)nc3ccccc3c21)Cc1cccc(OC(C)(C)C(=O)OC)c1` [Example 151, Methyl 2-{3-[(N-{3-[4-amino-2-(2-methoxyethyl)-1H-imidazo[4,5-c]quinolin-1-yl]propyl}-2-{ethyl(methyl)amino}acetamido)methyl]phenoxy}-2-methylpropanoate], the EC50 came to 82 nM.

In the case of `COCCc1nc2c(N)nc3ccccc3c2n1CCOCCN(Cc1cccc(OCC(=O)OC(C)C)c1)C(=O)NCCN1CCCCC1` [Example 152, Isopropyl 2-(3-{[1-(2-{2-[4-amino-2-(2-methoxyethyl)-1H-imidazo[4,5-c]quinolin-1-yl]ethoxy}ethyl)-3-{2-(piperidin-1-yl)ethyl}ureido]methyl}phenoxy)acetate], the EC50 worked out at 266 nM.

With `CCCCc1nc2c(N)nc3ccccc3c2n1CCCN(Cc1cccc(OC(C)(C)C(=O)OCC)c1)C(=O)CN(CC)CC` [Example 153, Ethyl 2-[3-({N-[3-(4-amino-2-butyl-1H-imidazo[4,5-c]quinolin-1-yl)propyl]-2-(diethylamino)acetamido}methyl)phenoxy]-2-methylpropanoate], the EC50 came to 86.1 nM.

For the molecule `CCCCc1nc2c(N)nc3ccccc3c2n1CCCN(Cc1cccc(OC(C)(C)C(=O)OCC)c1)C(=O)CN(C)C` [Example 155, Ethyl 2-[3-({N-[3-(4-amino-2-butyl-1H-imidazo[4,5-c]quinolin-1-yl)propyl]-2-(dimethylamino)acetamido}methyl)phenoxy]-2-methylpropanoate], the EC50 stood at 235 nM.

As for `CCCCc1nc2c(N)nc3ccccc3c2n1CCCN(Cc1cccc(OC(C)(C)C(=O)OC)c1)C(=O)CN(C)C` [Example 156, Methyl 2-[3-({N-[3-(4-amino-2-butyl-1H-imidazo[4,5-c]quinolin-1-yl)propyl]-2-(dimethylamino)acetamido}methyl)phenoxy]-2-methylpropanoate], the EC50 amounted to 168 nM.

For `CCCCc1nc2c(N)nc3ccccc3c2n1CCCN(Cc1cccc(OCC(=O)OC(C)C)c1)C(=O)CN(CC)CC` [Example 157, Isopropyl 2-[3-({N-[3-(4-amino-2-butyl-1H-imidazo[4,5-c]quinolin-1-yl)propyl]-2-(diethylamino)acetamido}methyl)phenoxy]acetate], the EC50 was 100 nM.

With `CCCCc1nc2c(N)nc3ccccc3c2n1CCCN(Cc1cccc(OCC(=O)OC(C)C)c1)C(=O)CN(C)C` [Example 159, Isopropyl 2-[3-({N-[3-(4-amino-2-butyl-1H-imidazo[4,5-c]quinolin-1-yl)propyl]-2-(dimethylamino)acetamido}methyl)phenoxy]acetate], the 50% effective concentration (EC50) is 139 nM.
